The results in this text go back to PMC7646200 (Xenobiotica; the fate of foreign compounds in biological …, 2020).

The structures appear in SMILES notation.

Series [1] is described as follows: in vitro. The conditions noted are these: female, pig, pH 7.4.
Series [2] deals with dog liver cytosol. In words: Sulfonation of 7-hydroxycoumarin derivatives by dog liver cytosol. Conditions: dog liver cytosol; for intrinsic clearance (Vmax/Km): rank among species; for Vmax: value (95 % confidence interval).
Series [3] deals with pig liver cytosol. Put plainly: Sulfonation of 7-hydroxycoumarin derivatives by pig liver cytosol. Conditions: pig liver cytosol; value (95 % confidence interval).
In series [4] the test system is rabbit liver cytosol. Put plainly: Sulfonation of 7-hydroxycoumarin derivatives by rabbit liver cytosol. Conditions: rabbit liver cytosol; for Vmax: value (95 % confidence interval); for sulfonation rate: 10 μM substrate.
Series [5] is described as follows: in vitro. The conditions noted are these: female, Dutch belted, rabbit, pH 7.4.
Series [6] is described as follows: in vitro. The conditions noted are these: male, Wistar, rat, pH 7.4.
In series [7] the test system is mouse liver cytosol. In words: Sulfonation of 7-hydroxycoumarin derivatives by mouse liver cytosol. The conditions noted are these: for Vmax: mouse liver cytosol, value (95 % confidence interval); for sulfonation rate: 10 μM substrate.
Series [8] is described as follows: in vitro. Conditions: both, Beagle, dog, pH 7.4.
Series [9] relates to rat liver cytosol. Put plainly: Sulfonation of 7-hydroxycoumarin derivatives by rat liver cytosol. Conditions: rat liver cytosol; for Vmax: value (95 % confidence interval); for sulfonation efficiency, intrinsic clearance (Vmax/Km): rank among species.
Series [10] concerns sheep liver cytosol. In words: Sulfonation of 7-hydroxycoumarin derivatives by sheep liver cytosol. Conditions: sheep liver cytosol; for Vmax: value (95 % confidence interval).
Series [11] in a line: in vitro. Conditions: DBA/2N/Kuo, mouse, pH 7.4.
Series [12] in a line: in vitro. The conditions noted are these: male, human, pH 7.4.
Series [13] concerns human liver cytosol. In words: Sulfonation of 7-hydroxycoumarin derivatives by human liver cytosol. The conditions noted are these: human liver cytosol; value (95 % confidence interval).
Series [14] can be described thus: in vitro. Conditions: female, sheep, pH 7.4.
Series [15] has as its system human liver cytosol. The conditions noted are these: pH 7.4.
Series [16] deals with dog liver cytosol. Conditions: pH 7.4.
For series [17], the system named is sheep liver cytosol. The conditions noted are these: pH 7.4.
The test system of series [18] is pig liver cytosol. Conditions: pH 7.4.
The subject of series [19] is rabbit liver cytosol. Conditions: pH 7.4.
Series [20] relates to rat liver cytosol. The conditions noted are these: pH 7.4.
In series [21] the test system is mouse liver cytosol. Conditions: pH 7.4.

What is called Km is the concentration of substrate that gives half-maximal velocity. As for `COc1ccc(-c2cc3ccc(O)cc3oc2=O)cc1` [compound 11, 3-(4-methoxyphenyl)-7-hydroxycoumarin], the Michaelis constant (Km) is 1.3 µM in “in vitro [1]”; 3.4 µM in the series “in vitro [5]”; 0.57 µM in “in vitro [6]”; 0.22 µM in “in vitro [8]”; 1.2 µM in “in vitro [11]”; 0.11 µM in “in vitro [12]”. In the series “in vitro [14]”, the Km is 9.8 µM. Also, the “intrinsic clearance (Vmax/Km)” value in the series on dog liver cytosol [2] is “highest”. Moreover, the Vmax in the series with dog liver cytosol [2] was 300 (150–710) nmol/(min * g protein); in the series on pig liver cytosol [3] it was 5.5 (3.3–7.8) nmol/(min * g protein); in the series with rabbit liver cytosol [4], 190 (100–260) nmol/(min * g protein); in the series on mouse liver cytosol [7] it was 100 (84–150) nmol/(min * g protein); in the series with rat liver cytosol [9] it was 210 (190–260) nmol/(min * g protein); with sheep liver cytosol [10], 410 (190–620) nmol/(min * g protein). Also, the Vmax in the series with human liver cytosol [13] is 18 (12–23) nmol/(min * g protein).

Take `O=c1oc2cc(O)ccc2cc1-c1cccnc1` [compound 13, 3-(4-pyridin-3-yl)-7-hydroxycoumarin]: the Vmax in the series on dog liver cytosol [2] is listed as 360 (330–430) nmol/(min * g protein); with pig liver cytosol [3], 24 (17–31) nmol/(min * g protein); with rabbit liver cytosol [4], 120 (100–210) nmol/(min * g protein); in the series with mouse liver cytosol [7], 160 (110–200) nmol/(min * g protein); in the series with sheep liver cytosol [10], 80 (0–230) nmol/(min * g protein); in the series with human liver cytosol [13], 59 (53–71) nmol/(min * g protein). The Michaelis-Menten constant (Km) is 6.6 3.7–6.8) μM in the series on human liver cytosol [15]; 3.3 µM in the series on dog liver cytosol [16]; 6.8 µM with sheep liver cytosol [17]; 4 µM with pig liver cytosol [18]; 10 µM in the series on rabbit liver cytosol [19]; 2.3 µM in the series with rat liver cytosol [20]. Besides, in the series with mouse liver cytosol [21], the Km is 4.3 µM. Also, the sulfonation rate entry in the series with rabbit liver cytosol [4] and with sheep liver cytosol [10] (10 μM substrate) was “Slow” in each case. Further, in the series on rat liver cytosol [9], the “sulfonation efficiency, intrinsic clearance (Vmax/Km)” value is recorded as “efficiently”.

For the molecule `Cc1c(C)c2ccc(O)cc2oc1=O` [compound 4, 3,4-dimethyl-7-hydroxycoumarin], the Km in the series “in vitro [1]” worked out at 6.4 µM; in the series “in vitro [5]” it was 0.65 µM; in “in vitro [6]”, 1.1 µM; in the series “in vitro [8]”, 0.62 µM; in “in vitro [11]”, 0.11 µM; in the series “in vitro [12]”, 24 µM. Also, the Km in the series “in vitro [14]” came out at 0.46 µM. Besides, the “intrinsic clearance (Vmax/Km)” value in the series on dog liver cytosol [2] is “highest”. Also, the Vmax is given as 330 (250–420) nmol/(min * g protein) in the series with dog liver cytosol [2]; 67 (18–120) nmol/(min * g protein) in the series with pig liver cytosol [3]; 13 (0–28) nmol/(min * g protein) in the series with rabbit liver cytosol [4]; 17 (14–20) nmol/(min * g protein) with mouse liver cytosol [7]; 380 (140–620) nmol/(min * g protein) with rat liver cytosol [9]; 300 (230–370) nmol/(min * g protein) with sheep liver cytosol [10]. For the same molecule, the Vmax in the series with human liver cytosol [13] is 210 (0–1300) nmol/(min * g protein). For the same molecule, the sulfonation rate entry in the series on mouse liver cytosol [7] (female mouse liver cytosol) and in the series on mouse liver cytosol [7] (male mouse liver cytosol) was “Slow” each time.

As to `O=c1oc2cc(O)ccc2cc1-n1cncn1` [compound 14, 3-(1H-1,2,4-tirazol-1-yl)-7-hydroxycoumarin], the Vmax was 200 (180–220) nmol/(min * g protein) in the series on dog liver cytosol [2]; 39 (13–65) nmol/(min * g protein) with pig liver cytosol [3]; 32 (25–39) nmol/(min * g protein) with rabbit liver cytosol [4]; 78 (69–88) nmol/(min * g protein) in the series with mouse liver cytosol [7]; 230 (200–260) nmol/(min * g protein) in the series on rat liver cytosol [9]; 220 (93–350) nmol/(min * g protein) in the series on sheep liver cytosol [10]. In addition, the Vmax in the series on human liver cytosol [13] is listed as 69 (55–84) nmol/(min * g protein). In addition, the Km in the series on human liver cytosol [15] was 4.7 µM; in the series on dog liver cytosol [16], 3.9 µM; with sheep liver cytosol [17], 12 µM; in the series on pig liver cytosol [18], 3 µM; in the series on rabbit liver cytosol [19], 2.8 µM; in the series with rat liver cytosol [20], 1.3 µM. In the series on mouse liver cytosol [21], the Michaelis-Menten constant (Km) is 4.9 µM. Also, the sulfonation rate entry in the series with rabbit liver cytosol [4] is given as “Slow”. Further, the “sulfonation efficiency, intrinsic clearance (Vmax/Km)” value in the series with rat liver cytosol [9] is on record as “efficiently”.
